Data from patent publication US8906953B2, “Pyrrolidine substitute flavones for the treatment of inflammatory disorders” (Piramal Enterprises Limited, priority 2010, dated 2014).

Tests used:
IL-6 = assay: Spontaneous IL-6 release from synovial cells of RA patients; type: cell-based; details: Homo sapiens, Synovial cell, freshly isolated synovial cells from RA patients, 16 hours
Experimental: Cytokine production in synovial cells obtained from rheumatoid arthritis patients undergoing knee replacement surgery, was measured as per the method described in reference, Lancet, 1989, 29, 244-247, the disclosure of which is incorporated herein by reference for the teaching of the assay. The synovial membrane tissue was digested by incubating at 37° C. for 3 hours in an atmosphere of 5% CO2, in Roswell Park Memorial Institute (RPMI) medium containing penicillin-G (100 U/mL), streptomycin (100 μg/mL), amphotericin B (50 ng/mL) (GIBCO), 1.33 mg/mL collagenase Type I (Worthington Biochemical Corporation, New Jersey, USA), 0.5 μg/mL DNAse Type I (SIGMA) and 8.33 U/mL heparin (Biological E. Limited, India). The digested tissue was then filtered through a membrane (mesh size 70 micron) (SIGMA), the cells were washed 3 times and suspended in complete medium (RPMI supplemented with 5% FCS and 5% human serum). The cell concentration was adjusted to 1×10^6 cells/mL. The viability as determined by trypan blue dye exclusion was uniform Ly≧98%. The cell suspension (100 μL) was added to the wells of a 96-well culture plate. […] The final concentration of DMSO was adjusted to 0.5%. The vehicle (0.5° A) DMSO) was used as control. SB 203580 (20 μM) was used as a standard. The plates were incubated for 16 hours at 37° C. in 5% CO2 atmosphere. […]

[1] = tested on: synovial fluid mononuclear cells (SFMC); assay: Induction of apoptosis in synovial fluid mononuclear cells (Annexin-V/PI); type: cell-based, human; details: adherent and non-adherent SFMC from RA patients, 5 μM and 10 μM, 24 hours
Experimental: The assay was designed as in reference, Arthritis and Rheumatism, Vol. 52, No. 1, January 2005, the disclosure of which is incorporated herein by reference for the teaching of the assay.
Synovial fluid was collected from rheumatoid arthritis patients under going knee aspiration. The fluid was collected in vacutainers and processed within 2 hours of collection. SFMC were isolated using gradient centrifugation using Ficoll-Hypaque solution (Sigma). Isolated SFMC were suspended in RPMI 1640 (Rosewell Park Memorial Institute) culture medium (Sigma-Aldrich Fine Chemicals, USA) containing 20% fetal bovine serum (FBS) (JRH, USA), 100 U/ml penicillin (Sigma Chemical Co. St Louis, Mo.) and 100 μg/mL streptomycin (Sigma Chemical Co. St Louis, Mo.). The cell concentration was adjusted to 1×10^6 cells/mL. The viability as determined by trypan blue dye exclusion was uniformly >98%. 4 mL of this cell suspension was added to each well of a 6-well plate. The SFMC were incubated for 3-4 hours. Non-adherent cells were removed and cultured separately in 6-well plates. Fresh medium was added to the adherent cells. After 24 hours incubation in a humidified atmosphere at 37° C. in 5% CO2, non-adherent cells were removed and pooled with previous days samples. These cells were plated at a density of 2×10^6 cells/well. The adherent cell population was re-fed fresh complete medium. […]

TNF-α = assay: LPS-induced TNF-α release in Balb/c mice; type: in vivo; details: Mus musculus, plasma 1.5 hours post LPS (1 mg/kg i.p.)
Experimental: The assay was designed as in reference, J. Med. Bio. Res., 1997, 30, 1199-1207, the disclosure of which is incorporated herein by reference for the teaching of the assay. […] All suspensions were freshly prepared in 0.5% CMC. One hour later, LPS (1 mg/kg) (Escherchia coli, serotype 0127:B8, Sigma Chemical Co., St. Louis, Mo.) dissolved in sterile pyrogen-free saline was administered intra-peritoneally to the control group, standard treatment group (Rolipram, 30 mg/kg, p.o.) and test groups (compound of example 3), except the negative control group, which received normal saline. Blood samples were collected from anesthetized mice, with heparin as an anti-coagulant (25 IU per sample) 1.5 hours post LPS challenge. […] Percent inhibition of TNF-α release was calculated by comparing the TNF-α levels of the treatment groups with those of the control group.

Structure (SMILES): CN1CC[C@@H](c2c(O)cc(O)c3c(=O)cc(-c4ccc(C(F)(F)F)cc4Cl)oc23)[C@@H]1CO.Cl [Compound of example 3, (+)-trans-2-(2-Chloro-4-trifluoromethyl-phenyl)-5,7-dihydroxy-8-(2-hydroxymethyl-1-methyl-pyrrolidin-3-yl)-chromen-4-one hydrochloride]
- IC50 (IL-6): 10 µM
- Induction of apoptosis (Annexin-V/PI) [1]: induces apoptosis
- inhibition at 12.5 mg/kg (TNF-α; 12.5 mg/kg oral): 53.2 ± 12.5%
- inhibition at 25 mg/kg (TNF-α; 25 mg/kg oral): 66.8 ± 11.5%
- inhibition at 50 mg/kg (TNF-α; 50 mg/kg oral): 82 ± 4.88%
- inhibition at 75 mg/kg (TNF-α; 75 mg/kg oral): 77.3 ± 8.61%
- inhibition at 100 mg/kg (TNF-α; 100 mg/kg oral): 92.6 ± 3.5%
